Test results as given in ChEMBL document CHEMBL5260810, “Inhibition of bromodomain-containing protein 9 for the prevention of epigenetically-defined drug resistance” (Bioorg Med Chem Lett, 2017).

Key:
NCI-H522 = assay: Cytotoxicity against human NCI-H522 cells measured after 8 days; assay type: functional, cell-based; settings: NCI-H522, 192 h
[1] = molecular target: T1, Bromodomain and PHD finger-containing protein 3 (Homo sapiens, UniProt Q9ULD4); assay: Binding affinity to human partial length BRPF3 (E588 to G701 residues) expressed in bacterial expression system by BROMOscan assay
T1 sequence (Q9ULD4 whole entry): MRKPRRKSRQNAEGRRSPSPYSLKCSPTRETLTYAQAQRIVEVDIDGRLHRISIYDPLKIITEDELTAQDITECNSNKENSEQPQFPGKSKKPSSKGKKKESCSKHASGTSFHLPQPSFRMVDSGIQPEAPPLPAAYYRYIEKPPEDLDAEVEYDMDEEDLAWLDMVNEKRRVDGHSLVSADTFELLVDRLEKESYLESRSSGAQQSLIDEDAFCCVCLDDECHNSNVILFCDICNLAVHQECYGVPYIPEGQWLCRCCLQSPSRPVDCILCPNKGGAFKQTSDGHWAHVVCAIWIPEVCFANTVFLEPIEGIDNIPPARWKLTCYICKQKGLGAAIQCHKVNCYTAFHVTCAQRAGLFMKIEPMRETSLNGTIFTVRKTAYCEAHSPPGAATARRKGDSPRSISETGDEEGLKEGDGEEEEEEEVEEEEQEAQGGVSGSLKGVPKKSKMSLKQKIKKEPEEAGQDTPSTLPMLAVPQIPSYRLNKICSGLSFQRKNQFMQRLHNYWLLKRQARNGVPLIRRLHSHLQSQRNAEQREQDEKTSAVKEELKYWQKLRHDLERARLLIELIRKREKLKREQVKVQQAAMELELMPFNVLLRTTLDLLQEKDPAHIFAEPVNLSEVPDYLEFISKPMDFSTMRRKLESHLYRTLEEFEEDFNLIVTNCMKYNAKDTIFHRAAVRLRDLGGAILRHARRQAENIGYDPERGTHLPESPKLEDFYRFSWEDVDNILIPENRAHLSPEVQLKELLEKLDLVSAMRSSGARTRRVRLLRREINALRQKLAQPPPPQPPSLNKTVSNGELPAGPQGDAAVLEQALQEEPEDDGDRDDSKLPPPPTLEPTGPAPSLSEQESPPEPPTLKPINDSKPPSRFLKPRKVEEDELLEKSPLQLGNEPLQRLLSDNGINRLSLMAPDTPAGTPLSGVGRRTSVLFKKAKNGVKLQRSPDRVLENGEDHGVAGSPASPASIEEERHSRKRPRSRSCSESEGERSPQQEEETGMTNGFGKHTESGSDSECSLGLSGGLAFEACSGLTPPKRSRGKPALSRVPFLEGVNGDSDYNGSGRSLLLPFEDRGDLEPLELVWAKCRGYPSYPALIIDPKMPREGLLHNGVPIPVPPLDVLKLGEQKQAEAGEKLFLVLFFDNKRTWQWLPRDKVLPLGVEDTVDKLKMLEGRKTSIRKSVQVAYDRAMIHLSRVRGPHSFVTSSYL

NCI-H650 = assay: Cytotoxicity against human NCI-H650 cells measured after 8 days; assay type: functional, cell-based; settings: NCI-H650, 192 h
WSUDLCL2 = assay: Cytotoxicity against human WSUDLCL2 cells measured after 8 days; assay type: functional, cell-based; settings: WSUDLCL2, 192 h
T47D = assay: Cytotoxicity against human T47D cells measured after 8 days; assay type: functional, cell-based; settings: 192 h
ONS-76 = assay: Cytotoxicity against human ONS-76 cells measured after 8 days; assay type: functional, cell-based; settings: ONS-76, 192 h
SW48 = assay: Cytotoxicity against human SW48 cells measured after 8 days; assay type: functional, cell-based; settings: SW48, 192 h
HCT-116 = assay: Cytotoxicity against human HCT-116 cells measured after 8 days; assay type: functional, cell-based; settings: HCT-116, 192 h
OPM-2 = assay: Cytotoxicity against human OPM-2 cells measured after 8 days; assay type: functional, cell-based; settings: OPM-2, 192 h
LS-1034 = assay: Cytotoxicity against human LS1034 cells measured after 8 days; assay type: functional, cell-based; settings: LS-1034, 192 h
Homo sapiens = species: Homo sapiens; assay: Binding affinity to GABA-gated chloride channel (unknown origin) at 10 uM by antagonist radioligand-based assay relative to control; design: scale not given: the % may be the effect or the level left; settings: time 60.0 min
NCI-H2452 = assay: Cytotoxicity against human NCI-H2452 cells measured after 8 days; assay type: functional, cell-based; settings: NCI-H2452, 192 h
[2] = Cytotoxicity against human HCC461 cells measured after 8 days; assay type: functional, cell-based; settings: HCC461, 192 h

| SMILES | IC50 (NCI-H522) [µM] | Kd [1] [µM] | IC50 (NCI-H650) [µM] | IC50 (WSUDLCL2) [µM] | IC50 (T47D) [µM] | IC50 (ONS-76) [µM] | IC50 (SW48) [µM] | IC50 (HCT-116) [µM] | IC50 (OPM-2) [µM] | IC50 (LS-1034) [µM] | Activity (Homo sapiens) [%] | IC50 (NCI-H2452) [µM] | IC50 [2] [µM] |
| --- | --- | --- | --- | --- | --- | --- | --- | --- | --- | --- | --- | --- | --- |
| C/C=C/Cn1cc(-c2ccc(C(C)(C)O)cc2OC)c2cc[nH]c2c1=O | 20 | > 10 | 20 | 7.32 | 20 | 20 | 20 | 20 | 13.7 | 20 | 15 | 20 | 20 |
| C/C=C/Cn1cc(-c2cc(OC)c(C(C)(C)O)cc2OC)c2cc(C)[nH]c2c1=O |  | > 10 |  |  |  |  |  |  |  |  |  |  |  |
| C/C=C/Cn1cc(-c2ccc(C(=O)N3CCOCC3)cc2)c2cc[nH]c2c1=O | 20 | > 10 | 20 | 8.31 | 20 | 20 | 20 | 20 | 10 | 20 | 4 | 20 | 20 |
| C/C=C/Cn1cc(-c2cc(OC)c(C(=O)N3CCOCC3)cc2OC)c2cc(C)[nH]c2c1=O | 2 | > 10 | 2 | 2 | 2 | 2 | 2 | 2 | 2 | 2 | 14 | 2 | 2 |
